# Source: patent US9049864B2, “Pyridazinone herbicidal compounds” (Syngenta Limited, priority 2012, dated 2015)
# Experiments:
# Experiment in all cases: Post-emergence herbicidal glasshouse test, percentage damage to the plant
# Format in all cases: in vivo
# Conditions in all cases: comparative experiment
# [1] = system: Alopecurus myosuroides (ALOMY)
# Method in brief: (§1)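 Activity appears as a score from 1 (0-19% damage) to 5 (80-100%), assessed 13 days after a post-emergence spray of 8-day-old plants. Comparative runs used 250, 500 and 1000 g/ha; the standard rate was 1000 g/ha, formulated in acetone/water (50:50) with 0.5% Tween 20.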
# [2] = system: Setaria faberi (SETFA)
# Method in brief: as §1
# [3] = system: Ipomoea hederacea (IPOHE)
# Method in brief: as §1
# [4] = system: Solanum nigrum (SOLNI)
# Method in brief: as §1
# [5] = system: Echinochloa crus-galli (ECHCG)
# Method in brief: as §1
# [6] = system: Amaranthus retoflexus (AMARE)
# Method in brief: as §1
smiles,measurement,setting,value
"Cc1cc(Cl)nn1C1C(=O)C=NN(C)C1=O (stereo not drawn) [Compound B, reference compound]","POST Application ALOMY, percentage damage (five point scale)",[1]; rate 250 g/ha,1 (1=0-19%)
same,"POST Application ALOMY, percentage damage (five point scale)",[1]; rate 500 g/ha,1 (1=0-19%)
same,"POST Application ALOMY, percentage damage (five point scale)",[1]; rate 1000 g/ha,2 (2=20-39%)
same,"POST Application SETFA, percentage damage (five point scale)",[2]; rate 250 g/ha,1 (1=0-19%)
same,"POST Application SETFA, percentage damage (five point scale)",[2]; rate 500 g/ha,1 (1=0-19%)
same,"POST Application SETFA, percentage damage (five point scale)",[2]; rate 1000 g/ha,1 (1=0-19%)
same,"POST Application IPOHE, percentage damage (five point scale)",[3]; rate 250 g/ha,1 (1=0-19%)
same,"POST Application IPOHE, percentage damage (five point scale)",[3]; rate 500 g/ha,2 (2=20-39%)
same,"POST Application IPOHE, percentage damage (five point scale)",[3]; rate 1000 g/ha,5 (5=80-100%)
same,"POST Application SOLNI, percentage damage (five point scale)",[4]; rate 250 g/ha,2 (2=20-39%)
same,"POST Application SOLNI, percentage damage (five point scale)",[4]; rate 500 g/ha,3 (3=40-59%)
same,"POST Application SOLNI, percentage damage (five point scale)",[4]; rate 1000 g/ha,4 (4=60-79%)
same,"POST Application ECHCG, percentage damage (five point scale)",[5]; rate 250 g/ha,1 (1=0-19%)
same,"POST Application ECHCG, percentage damage (five point scale)",[5]; rate 500 g/ha,1 (1=0-19%)
same,"POST Application ECHCG, percentage damage (five point scale)",[5]; rate 1000 g/ha,2 (2=20-39%)
same,"POST Application AMARE, percentage damage (five point scale)",[6]; rate 250 g/ha,2 (2=20-39%)
same,"POST Application AMARE, percentage damage (five point scale)",[6]; rate 500 g/ha,3 (3=40-59%)
same,"POST Application AMARE, percentage damage (five point scale)",[6]; rate 1000 g/ha,4 (4=60-79%)
